{"source": "paper PMC11444200", "about": "“In Vitro Evaluation of Antipseudomonal Activity and Safety Profile of Peptidomimetic Furin Inhibitors” (Biomedicines, 2024)", "origin": "cited, not measured here", "key": {"[1]": {"test_system": "Mas-related G protein–coupled receptor X2 (MRGPRX2)", "design": "method as in PMID 38385828", "details": "compared to MI-1851 and MI-2415; cited from earlier work"}, "furin": {"molecular_target": "furin", "details": "read-out: Ki (furin); cited from earlier work"}, "[2]": {"design": "method as in PMID 29059503", "details": "cited from earlier work"}, "mice": {"test_system": "mice", "details": "mice, cited from earlier work"}, "CYP3A4": {"test_system": "CYP3A4", "details": "cited from earlier work"}}, "note": "Read-outs that look alike come from different tables or passages of the source.", "data": [{"smiles": "CC(C)(C)[C@H](NC(=O)[C@H](CCCN=C(N)N)NC(=O)Cc1ccc(CN=C(N)N)cc1)C(=O)N[C@@H](CCCN=C(N)N)C(=O)NCc1ccc(C(=N)N)cc1", "note": "[MI-1148, 4-guanidinomethyl-phenylacetyl-Arg-Tle-Arg-4-Amba, reference compound]", "values": [{"measurement": "activation of MRGPRX2", "setting": "[1]", "value": "much stronger activation"}, {"measurement": "Ki", "setting": "furin", "value": 5.5, "unit": "pM"}, {"measurement": "stability in human plasma", "setting": "[2]", "value": "high stability"}, {"measurement": "mortality", "setting": "mice; 5 mg/kg i.p.", "value": "all four mice died"}, {"measurement": "maximum tolerated dose", "setting": "mice; i.p.", "value": 2.5, "unit": "mg/kg"}]}, {"smiles": "N=C(N)c1cccc(C[C@H](NS(=O)(=O)c2cccc(-c3ccc(Cl)cc3Cl)c2)C(=O)N2CCC(CCN)CC2)c1.O=C(O)C(F)(F)F.O=C(O)C(F)(F)F", "note": "[MI-432]", "values": [{"measurement": "CYP3A4 inhibition", "setting": "CYP3A4; compared with MI-1851 and MI-2415", "value": "inhibit CYP3A4 already at considerably lower concentrations"}]}, {"smiles": "COc1ccc(-c2cccc(S(=O)(=O)N[C@@H](Cc3cccc(C(=N)N)c3)C(=O)N3CCN(C(=O)NC4CCCCC4)CC3)c2)c(OC)c1", "note": "[MI-1900]", "values": [{"measurement": "CYP3A4 inhibition", "setting": "CYP3A4", "value": "inhibit CYP3A4 already at considerably lower concentrations"}]}]}
